Assay results reported in patent US12568972B2, “Pyridazinol compounds and derivatives, preparation methods, herbicidal compositions and applications thereof” (Qingdao Kingagroot Chemical Compound Co., Ltd., priority 2018, dated 2026).

How the values were obtained:
Experiment in all cases: Post-emergence test, weed control effect
Type in all cases: in vivo
Details in all cases: after 3 weeks
Amaranthus retroflexus = test system: Amaranthus retroflexus
Method in brief: (§1)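 Greenhouse pots, soil-sown, 0.5-2 cm cover; foliar spray at 2-3 leaf stage (2-3 wk post-sowing); cpd in acetone + Tween-80, water-diluted, + 80% veg. oil methyl ester synergist 1500 g/ha; 3 wk culture; fresh-wt inhibition graded 0-10.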

Chenopodiaceae = test system: Chenopodiaceae
Method in brief: as §1

Rorippa indica = test system: Rorippa indica
Method in brief: as §1

Veronica polita = test system: Veronica polita
Method in brief: as §1

COc1c(C)ccc(F)c1-c1nnc(C(F)(F)F)cc1O [Compound 62]
10: weed control effect (activity level), Amaranthus retroflexus (Amaranthus retroflexus; dose 1000 g/ha) | weed control effect (activity level), Chenopodiaceae (Chenopodiaceae; dose 1000 g/ha) | weed control effect (activity level), Rorippa indica (Rorippa indica; dose 1000 g/ha) | weed control effect (activity level), Veronica polita (Veronica polita; dose 1000 g/ha)

O=C(Oc1cc(C(F)(F)F)nnc1-c1ccc(C(F)(F)F)cc1)c1cccc(OC(F)(F)F)c1 [Compound 1-88]
10: weed control effect, Amaranthus retroflexus (activity level) (Amaranthus retroflexus; Dose 3000 g/ha) | weed control effect, Chenopodiaceae (activity level) (Chenopodiaceae; Dose 3000 g/ha) | weed control effect, Rorippa indica (activity level) (Rorippa indica; Dose 3000 g/ha) | weed control effect, Veronica polita (activity level) (Veronica polita; Dose 3000 g/ha)

O=C(/C=C/c1ccc(Cl)cc1)Oc1cc(C(F)(F)F)nnc1-c1ccc(F)cc1 [Compound 1-97]
10: weed control effect, Amaranthus retroflexus (activity level) (Amaranthus retroflexus; Dose 3000 g/ha) | weed control effect, Chenopodiaceae (activity level) (Chenopodiaceae; Dose 3000 g/ha) | weed control effect, Rorippa indica (activity level) (Rorippa indica; Dose 3000 g/ha) | weed control effect, Veronica polita (activity level) (Veronica polita; Dose 3000 g/ha)

Oc1cc(C(F)(F)F)nnc1-c1ccc(Cl)nc1F [Compound 997]
10: weed control effect (activity level), Amaranthus retroflexus (Amaranthus retroflexus; Dose 3000 g/ha) | weed control effect (activity level), Chenopodiaceae (Chenopodiaceae; Dose 3000 g/ha) | weed control effect (activity level), Rorippa indica (Rorippa indica; Dose 3000 g/ha) | weed control effect (activity level), Veronica polita (Veronica polita; Dose 3000 g/ha)

CC(=O)Oc1cc(C(F)(F)F)nnc1-c1ccc(F)cc1 [Compound 1-2]
10: weed control effect, Amaranthus retroflexus (activity level) (Amaranthus retroflexus; Dose 3000 g/ha) | weed control effect, Chenopodiaceae (activity level) (Chenopodiaceae; Dose 3000 g/ha) | weed control effect, Rorippa indica (activity level) (Rorippa indica; Dose 3000 g/ha) | weed control effect, Veronica polita (activity level) (Veronica polita; Dose 3000 g/ha)

CCCOc1ccc(-c2nnc(C(F)(F)F)cc2O)cc1 [Compound 83]
10: weed control effect (activity level), Amaranthus retroflexus (Amaranthus retroflexus; dose 1000 g/ha) | weed control effect (activity level), Chenopodiaceae (Chenopodiaceae; dose 1000 g/ha) | weed control effect (activity level), Rorippa indica (Rorippa indica; dose 1000 g/ha) | weed control effect (activity level), Veronica polita (Veronica polita; dose 1000 g/ha)

Oc1cc(C(F)(F)F)nnc1-c1cccnc1C(F)(F)F [Compound 976]
10: weed control effect (activity level), Amaranthus retroflexus (Amaranthus retroflexus; Dose 3000 g/ha) | weed control effect (activity level), Chenopodiaceae (Chenopodiaceae; Dose 3000 g/ha) | weed control effect (activity level), Rorippa indica (Rorippa indica; Dose 3000 g/ha) | weed control effect (activity level), Veronica polita (Veronica polita; Dose 3000 g/ha)

C=Cc1cc(-c2nnc(C(F)(F)F)cc2O)c(F)cc1Cl [Compound 166]
10: weed control effect (activity level), Amaranthus retroflexus (Amaranthus retroflexus; dose 2000 g/ha) | weed control effect (activity level), Chenopodiaceae (Chenopodiaceae; dose 2000 g/ha) | weed control effect (activity level), Rorippa indica (Rorippa indica; dose 2000 g/ha) | weed control effect (activity level), Veronica polita (Veronica polita; dose 2000 g/ha)

CC(Cl)C(=O)Oc1cc(C(F)(F)F)nnc1-c1ccc(C(F)(F)F)cc1 (centres unmarked) [Compound 1-22]
10: weed control effect, Amaranthus retroflexus (activity level) (Amaranthus retroflexus; Dose 3000 g/ha) | weed control effect, Chenopodiaceae (activity level) (Chenopodiaceae; Dose 3000 g/ha) | weed control effect, Rorippa indica (activity level) (Rorippa indica; Dose 3000 g/ha) | weed control effect, Veronica polita (activity level) (Veronica polita; Dose 3000 g/ha)

CCCCC(CC)OC(=O)Oc1cc(C(F)(F)F)nnc1-c1ccc(Br)c([N+](=O)[O-])c1 (centres unmarked) [Compound 1-36]
10: weed control effect, Amaranthus retroflexus (activity level) (Amaranthus retroflexus; Dose 3000 g/ha) | weed control effect, Chenopodiaceae (activity level) (Chenopodiaceae; Dose 3000 g/ha) | weed control effect, Rorippa indica (activity level) (Rorippa indica; Dose 3000 g/ha) | weed control effect, Veronica polita (activity level) (Veronica polita; Dose 3000 g/ha)

Oc1cc(C(F)(F)F)nnc1-c1cc(Cl)ccc1Cl [Compound 37]
10: weed control effect (activity level), Amaranthus retroflexus (Amaranthus retroflexus; dose 1000 g/ha) | weed control effect (activity level), Chenopodiaceae (Chenopodiaceae; dose 1000 g/ha) | weed control effect (activity level), Rorippa indica (Rorippa indica; dose 1000 g/ha) | weed control effect (activity level), Veronica polita (Veronica polita; dose 1000 g/ha)

Oc1cc(C(F)(F)F)nnc1-c1cnccc1Br [Compound 968]
10: weed control effect (activity level), Amaranthus retroflexus (Amaranthus retroflexus; Dose 3000 g/ha) | weed control effect (activity level), Chenopodiaceae (Chenopodiaceae; Dose 3000 g/ha) | weed control effect (activity level), Rorippa indica (Rorippa indica; Dose 3000 g/ha) | weed control effect (activity level), Veronica polita (Veronica polita; Dose 3000 g/ha)

CCCCCC(=O)Oc1cc(C(F)(F)F)nnc1-c1ccc(C#N)cc1 [Compound 1-10]
10: weed control effect, Amaranthus retroflexus (activity level) (Amaranthus retroflexus; Dose 3000 g/ha) | weed control effect, Chenopodiaceae (activity level) (Chenopodiaceae; Dose 3000 g/ha) | weed control effect, Rorippa indica (activity level) (Rorippa indica; Dose 3000 g/ha) | weed control effect, Veronica polita (activity level) (Veronica polita; Dose 3000 g/ha)

O=S(=O)(NCCCCl)Oc1cc(C(F)(F)F)nnc1-c1cccc(F)c1 [Compound 1-124]
10: weed control effect, Amaranthus retroflexus (activity level) (Amaranthus retroflexus; Dose 3000 g/ha) | weed control effect, Chenopodiaceae (activity level) (Chenopodiaceae; Dose 3000 g/ha) | weed control effect, Rorippa indica (activity level) (Rorippa indica; Dose 3000 g/ha) | weed control effect, Veronica polita (activity level) (Veronica polita; Dose 3000 g/ha)

Oc1cc(C(F)(F)F)nnc1-c1c(Cl)cccc1Cl [Compound 41]
10: weed control effect (activity level), Amaranthus retroflexus (Amaranthus retroflexus; dose 1000 g/ha) | weed control effect (activity level), Chenopodiaceae (Chenopodiaceae; dose 1000 g/ha) | weed control effect (activity level), Rorippa indica (Rorippa indica; dose 1000 g/ha) | weed control effect (activity level), Veronica polita (Veronica polita; dose 1000 g/ha)

COc1c(Cl)ccc(-c2nnc(C(F)(F)F)cc2O)c1F [Compound 741]
10: weed control effect (activity level), Amaranthus retroflexus (Amaranthus retroflexus; Dose 3000 g/ha) | weed control effect (activity level), Chenopodiaceae (Chenopodiaceae; Dose 3000 g/ha) | weed control effect (activity level), Rorippa indica (Rorippa indica; Dose 3000 g/ha) | weed control effect (activity level), Veronica polita (Veronica polita; Dose 3000 g/ha)

COc1ccc(C(=O)Oc2cc(C(F)(F)F)nnc2-c2ccc(F)c(F)c2)cc1 [Compound 1-84]
10: weed control effect, Amaranthus retroflexus (activity level) (Amaranthus retroflexus; Dose 3000 g/ha) | weed control effect, Chenopodiaceae (activity level) (Chenopodiaceae; Dose 3000 g/ha) | weed control effect, Rorippa indica (activity level) (Rorippa indica; Dose 3000 g/ha) | weed control effect, Veronica polita (activity level) (Veronica polita; Dose 3000 g/ha)
